What all share (assay type): cell-based
In experiment [1] the test system is human acute myeloid leukemia cell line ML-1. As to the kind of experiment: Cytostatic activity on leukemia cell line ML-1 (WST-1). To be noted: 72 hours, ML-1 cells; for inhibition at 10 µM: Homo sapiens, ML1, 10 μmol/L, read-out: cytostatic rate ML-1 (%) (10 μmol/L). The method, then: (§1) The cytostatic rates of a test compound on human acute myeloid leukemia cell lines MV-4-11 and ML-1, and human chronic myeloid leukemia cell line K562 were determined in the following manner.
(§2) Each cell was cultured using Roswell Park Memorial Institute's Medium (RPMI) 1640 (Gibco, Catalog No. 11875-093) containing 10% fetal bovine serum (Gibco, Catalog No. 10437-028) and 1% penicillin/streptomycin (1:1) (Gibco, Catalog No. 15140-122). Each 80 μL of the MV-4-11 cell having a concentration of 7.5×10^4 cells/mL (or the ML-1 cell or K562 cell having a concentration of 2.5×10^4 cells/mL) was inoculated to wells of a TC MICROWELL 96U plate (Nalge Nunc International, Catalog No. 163320) and was cultured in a 5% carbon dioxide gas incubator at 37° C. for 4 hours. As a blank, only RPMI medium (80 μL) was added to a well. Each 20 μL of a solution of the test compound in dimethyl sulfoxide (DMSO) which was prepared to make the final concentration to 10 μmol/L, was added to the MV-4-11 cell, ML-1 cell and K562 cell, respectively. Each 20 μL of DMSO was added to the control well and the blank well to […]. After adding the test compound, the cells were incubated in a 5% carbon dioxide gas incubator at 37° C. for 72 hours. After adding 20 μL of WST-1 reagent {4-[3-(4-iodophenyl)-2-(4-nitrophenyl)-2H-5-tetrazolio]-1,3-benzene disulfonate sodium salt} (Roche Diagnostics K.K., Catalog No. 1644807) diluted to 50% with RPMI medium, the cells were further incubated at 37° C. for 2 hours. Then, the absorbances at 450 nm (reference wavelength: 690 nm) were determined with a microplate spectrophotometer SPECTRA max 340PC (Molecular Devices Corporation). The relative growth (%) of a well to which the test compound had been added was determined while setting the absorbance of a well to which not the test compound but DMSO alone had been added (control) at 100% and that of a well containing RPMI medium alone at 0%. The cytostatic rate (%) of the test compound was determined by subtracting the calculated relative growth from 100.

Experiment [2] has as its system human colon cancer cell line Colo205. In words: Cytostatic activity on solid carcinoma cell line Colo205 (WST-1). The settings on record: 72 hours, Colo205 cells; for inhibition at 10 µM: Homo sapiens, COLO 205, 10 μmol/L, read-out: cytostatic rate Colo205 (%) (10 μmol/L). The method, then: as §2
The cytostatic rate of a test compound on the human colon cancer cell line Colo205 was determined in the following manner.
The cell was cultured using Roswell Park Memorial Institute's Medium (RPMI) 1640 (Gibco, Catalog No. 11875-093) containing 10% fetal bovine serum (Gibco, Catalog No. 10437-028) and 1% penicillin/streptomycin (1:1) (Gibco, Catalog No. 15140-122). Each 80 μL of the Colo205 having a concentration of 1.25×10^4 cells/mL was inoculated to wells of a TC MICROWELL 96F plate (Nalge Nunc International, Catalog No. 167008) and was cultured in a 5% carbon dioxide gas incubator at 37° C. for 24 hours. As a blank, only RPMI (80 μL) was added to a well. Each 20 μL of a solution of the test compound in DMSO which was prepared to make the final concentration to 10 μmol/L, was added to the Colo205 cell. Each 20 μL of DMSO was added to the control well and the blank well to […]. After adding the test compound, the cell was incubated in a 5% carbon dioxide gas incubator at 37° C. for 72 hours. The cytostatic rate (%) was then determined in the same way as the leukemia cell lines.
A general note: Tetrazolium assays rely on reduction of a dye to a coloured formazan, in cell work by metabolically active cells.

Experiment [3] relates to human chronic myeloid leukemia cell line K562. In words: Cytostatic activity on leukemia cell line K562 (WST-1). To be noted: 72 hours, K562 cells; for inhibition at 10 µM: Homo sapiens, 10 μmol/L, read-out: cytostatic rate K562 (%) (10 μmol/L). The method, then:
as §1, §2

The subject of experiment [4] is human acute myeloid leukemia cell line MV-4-11. As to the kind of experiment: Cytostatic activity on leukemia cell line MV-4-11 (WST-1). The settings on record: 72 hours, MV-4-11 cells; for inhibition at 10 µM: Homo sapiens, MV4-11, 10 μmol/L, read-out: cytostatic rate MV-4-11 (%) (10 μmol/L). The method, then: as §1, §2

Molecules are shown by their SMILES. Counter-ions that a name gives are not always drawn.

For the molecule `CC(C)CC(=O)N1CCN(C(=O)c2ccc(/C=C/c3n[nH]c4ccccc34)cc2)CC1` [Compound 66, (E)-4-(3-methylbutyryl)-1-{4-[2-(1H-indazol-3-yl)vinyl]benzoyl}piperazine], the inhibition at 10 µM in experiment [1] was found to be 74%; in experiment [2], 83%; in experiment [3] it was 89%; in experiment [4], 99%.
As for `CNCCNC(=O)c1ccc(/C=C/c2n[nH]c3ccccc23)cc1` [Compound 112, (E)-N-[2-(methylamino)ethyl]-4-[2-(1H-indazol-3-yl)vinyl]benzamide hydrochloride], the inhibition at 10 µM is 83% in experiment [1], 88% in experiment [2], 81% in experiment [3] and 98% in experiment [4].
In the case of `CCC(C)N1CCN(C(=O)c2ccc(/C=C/c3n[nH]c4ccccc34)cc2)CC1=O` (stereo not drawn) [Compound 116, (E)-4-{4-[2-(1H-indazol-3-yl)vinyl]benzoyl}-1-(sec-butyl)piperazin-2-one hydrochloride], the inhibition at 10 µM in experiment [1] was found to be 79%; in experiment [2] it was 91%; in experiment [3], 88%; in experiment [4], 98%.
`CC(C)(O)CC(=O)N1CCN(C(=O)c2ccc(/C=C/c3n[nH]c4ccccc34)cc2)CC1` [Compound 90, (E)-4-(3-methyl-3-hydroxybutyryl)-1-{4-[2-(1H-indazol-3-yl)vinyl]benzoyl}piperazine]: the inhibition at 10 µM in experiment [1] amounted to 79%; in experiment [2] it was 88%; in experiment [3], 85%; in experiment [4] it was 98%.
For the molecule `O=C(c1ccc(/C=C/c2n[nH]c3ccccc23)cc1)N1CCN(c2c(N3CCCCC3)c(=O)c2=O)CC1` [Compound 155, (E)-3-piperidino-4-{[4-(2-(1H-indazol-3-yl)vinyl)benzoyl]piperazin-1-yl}-3-cyclobutene-1,2-dione], in experiment [1], the “cytostatic rate ML-1 (%) (10 μmol/L)” value stood at 79%. Further, in experiment [2], the “cytostatic rate Colo205 (%) (10 μmol/L)” value is on record as 88%. For the same molecule, in experiment [3], the “cytostatic rate K562 (%) (10 μmol/L)” value stood at 96%. The “cytostatic rate MV-4-11 (%) (10 μmol/L)” value in experiment [4] worked out at 97%.
Turning to `O=C1CN(C(=O)c2ccc(/C=C/c3n[nH]c4ccccc34)cc2)CCN1` [Compound 89, (E)-4-{4-[2-(1H-indazol-3-yl)vinyl]benzoyl}piperazin-2-one], the inhibition at 10 µM in experiment [1] is 86%; in experiment [2], 92%; in experiment [3], 61%; in experiment [4], 98%.
For the molecule `O=C(c1ccc(/C=C/c2n[nH]c3ccccc23)cc1)N1CCNCC1` [Compound 18, (E)-1-{4-[2-(1H-indazol-3-yl)vinyl]benzoyl}piperazine], the inhibition at 10 µM in experiment [1] is 76%; in experiment [2], 85%; in experiment [3], 91%; in experiment [4], 98%.
In the case of `O=C(c1ccc(/C=C/c2n[nH]c3ccccc23)cc1)N1CCC(O)CC1` [Compound 87, (E)-1-{4-[2-(1H-indazol-3-yl)vinyl]benzoyl}-4-hydroxypiperidine], the inhibition at 10 µM in experiment [1] is 88%; in experiment [2] it was 86%; in experiment [3], 76%; in experiment [4] it was 99%.
Regarding `COCC(=O)N1CCN(C(=O)c2ccc(/C=C/c3n[nH]c4ccccc34)cc2)CC1` [Compound 65, (E)-4-methoxyacetyl-1-{4-[2-(1H-indazol-3-yl)vinyl]benzoyl}piperazine], the inhibition at 10 µM in experiment [1] is 86%; in experiment [2], 88%; in experiment [3], 85%; in experiment [4] it was 97%.
`Cc1cc(/C=C/c2n[nH]c3ccccc23)ccc1C(=O)N1CCNCC1` [Compound 95, (E)-1-{4-[2-(1H-indazol-3-yl)vinyl]-2-methylbenzoyl}piperazine dihydrochloride]: the inhibition at 10 µM in experiment [1] was 70%; in experiment [2], 86%; in experiment [3] it was 93%; in experiment [4], 96%.
The matching figures for `CC(C)(O)C(=O)N1CCN(C(=O)c2ccc(/C=C/c3n[nH]c4ccccc34)cc2)CC1` [Compound 68, (E)-4-(2-methyl-2-hydroxypropionyl)-1-{4-[2-(1H-indazol-3-yl)vinyl]benzoyl}piperazine]: 79%, 90%, 91% and 97%.
On the same counts, the results for `C[C@H]1CN(C(=O)c2ccc(/C=C/c3n[nH]c4ccccc34)cc2)CCN1` [Compound 101, (S)-(E)-1-{4-[2-(1H-indazol-3-yl)vinyl]benzoyl}-3-methylpiperazine dihydrochloride] are 77%, 87%, 92% and 99%.
In the case of `CC1(C(=O)N2CCN(C(=O)c3ccc(/C=C/c4n[nH]c5ccccc45)cc3)CC2)CC1` [Compound 77, (E)-4-(1-methylcyclopropanecarbonyl)-1-{4-[2-(1H-indazol-3-yl)vinyl]benzoyl}piperazine], the inhibition at 10 µM in experiment [1] was determined as 80%; in experiment [2], 86%; in experiment [3], 95%; in experiment [4] it was 98%.
On to `O=C(c1ccc(/C=C/c2n[nH]c3ccccc23)cc1)N1CCN(C(=O)[C@@H]2CCCN2)CC1` [Compound 140, (S)-(E)-4-[(pyrrolidin-2-yl)carbonyl]-1-{4-[2-(1H-indazol-3-yl)vinyl]benzoyl}piperazine], for which the inhibition at 10 µM in experiment [1] came to 82%; in experiment [2] it was 85%; in experiment [3] it was 95%; in experiment [4] it was 99%.
Take `CC(C)(C)CC(=O)N1CCN(C(=O)c2ccc(/C=C/c3n[nH]c4ccccc34)cc2)CC1` [Compound 78, (E)-4-(3,3-dimethylbutyryl)-1-{4-[2-(1H-indazol-3-yl)vinyl]benzoyl}piperazine]: the inhibition at 10 µM in experiment [1] came out at 64%; in experiment [2], 82%; in experiment [3], 90%; in experiment [4], 98%.
On the same counts, the results for `O=C(c1ccc(/C=C/c2n[nH]c3ccccc23)cc1)N1CCN(O)CC1` [Compound 147, (E)-4-Hydroxy-1-{4-[2-(1H-indazol-3-yl)vinyl]benzoyl}piperazine] are 89%, 83%, 77% and 99%.
Take `O=C(c1ccc(/C=C/c2n[nH]c3ccccc23)cc1)N1CCN(c2c(N3CCOCC3)c(=O)c2=O)CC1` [Compound 156, (E)-3-morpholino-4-{[4-(2-(1H-indazol-3-yl)vinyl)benzoyl]piperazin-1-yl}-3-cyclobutene-1,2-dione]: the “cytostatic rate ML-1 (%) (10 μmol/L)” value in experiment [1] was found to be 85%. In addition, the “cytostatic rate Colo205 (%) (10 μmol/L)” value in experiment [2] is listed as 92%. Further, the “cytostatic rate K562 (%) (10 μmol/L)” value in experiment [3] is reported as 94%. Also, the “cytostatic rate MV-4-11 (%) (10 μmol/L)” value in experiment [4] is 99%.
On to `N[C@@H]1CCN(C(=O)c2ccc(/C=C/c3n[nH]c4ccccc34)cc2)C1` [Compound 158, (R)-(E)-1-{4-[2-(1H-Indazol-3-yl)vinyl]benzoyl}-3-aminopyrrolidine], for which the inhibition at 10 µM in experiment [1] stood at 80%; in experiment [2], 91%; in experiment [3], 90%; in experiment [4], 98%.

Source of the values: patent US7919517B2, “Indazole derivatives” (Kyowa Hakko Kirin Co., Ltd., priority 2003, dated 2011).
